US20240158446A1, “CYCLIC COMPOUND HAVING SELECTIVE INHIBITORY ACTION ON KRAS OVER HRAS AND NRAS” (CHUGAI SEIYAKU KABUSHIKI KAISHA, priority 2021, published 2024)
Where two headings read alike, the source gives them in different places. *1 amine or outer side, *2 acyl side, *3 side chain or, on linkers, in order; H or OH if unused. Where a SMILES comes first, the peptide text is derived from it. Bridges are numbered along the chain shown (N, C = ends). [ ]: non-standard residue; d: D form. The star is where a group is joined. hPhe(3,5-F2-4-CF3) = N[C@@H](CCc1cc(F)c(C(F)(F)F)c(F)c1)C(=O)O; hPhe(3-Cl-4-CF3) = N[C@@H](CCc1ccc(C(F)(F)F)c(Cl)c1)C(=O)O; X45 = O=C([C@H](Cc1ccc(C(F)(F)F)cc1)N(CCCF)[*:1])[*:2]; NPrPhe(4-CF3) = CCCN[C@@H](Cc1ccc(C(F)(F)F)cc1)C(=O)O; NMeAbu(4,4,4-F3) = CN[C@@H](CC(F)(F)F)C(=O)O; NMeGly(cPent) = CN[C@H](C(=O)O)C1CCCC1; Hyp = O=C(O)[C@@H]1C[C@@H](O)CN1; NMeD = CN[C@@H](CC(=O)O)C(=O)O; NMeL = CN[C@@H](CC(C)C)C(=O)O; Morpholide = C1CN(*)CCO1; NMeA = CN[C@@H](C)C(=O)O; Ac5c = NC1(C(=O)O)CCCC1; Aze = O=C(O)[C@@H]1CCN1; Sar = CNCC(=O)O

Columns and labels:
[1] = molecular target: GDP-bound NRAS wild-type protein (Homo sapiens, UniProt P01111); assay: Binding to NRAS by surface plasmon resonance (SPR), Single Cycle Kinetics; conditions: SPR, GDP-bound NRAS wild-type protein vs GDP-bound KRAS wild-type protein
[2] = molecular target: GDP-bound HRAS wild-type protein (Homo sapiens, UniProt P01112); assay: Binding to HRAS by surface plasmon resonance (SPR), Single Cycle Kinetics; conditions: SPR, GDP-bound HRAS wild-type protein vs GDP-bound KRAS wild-type protein
[3] = molecular target: GDP-bound KRAS wild-type protein (Homo sapiens, UniProt P01116); assay: Binding to KRAS by surface plasmon resonance (SPR), Single Cycle Kinetics; conditions: GDP-bound KRAS wild-type protein, read-out: KRAS KD
[4] = SPR Single Cycle Kinetics, 1:1 binding model

GDP-bound HRAS wild-type protein, sequence (P01112 whole entry): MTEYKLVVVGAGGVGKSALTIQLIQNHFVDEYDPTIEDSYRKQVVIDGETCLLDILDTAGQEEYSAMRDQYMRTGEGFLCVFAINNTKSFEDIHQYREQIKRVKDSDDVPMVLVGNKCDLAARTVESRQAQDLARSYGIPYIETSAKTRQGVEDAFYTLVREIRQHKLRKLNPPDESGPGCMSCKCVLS
GDP-bound KRAS wild-type protein, sequence (P01116 whole entry): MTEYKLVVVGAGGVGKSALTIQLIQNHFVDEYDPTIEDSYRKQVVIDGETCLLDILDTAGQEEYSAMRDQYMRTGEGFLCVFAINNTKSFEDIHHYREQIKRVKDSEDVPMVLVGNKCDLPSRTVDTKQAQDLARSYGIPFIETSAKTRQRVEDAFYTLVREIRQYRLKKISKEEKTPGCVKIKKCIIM
GDP-bound NRAS wild-type protein, sequence (P01111 whole entry): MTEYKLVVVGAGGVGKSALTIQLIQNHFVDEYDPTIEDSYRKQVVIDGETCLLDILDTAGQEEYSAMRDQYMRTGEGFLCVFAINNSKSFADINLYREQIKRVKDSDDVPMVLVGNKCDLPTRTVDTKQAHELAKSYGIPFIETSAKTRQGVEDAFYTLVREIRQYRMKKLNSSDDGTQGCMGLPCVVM

| Compound | NRAS/KRAS (ratio of KD value for NRAS to KD value for KRAS) [1] | HRAS/KRAS (ratio of KD value for HRAS to KD value for KRAS) [2] | Kd [3, 4] | Kd ([3]; SPR, Single Cycle Kinetics) | NRAS/KRAS (ratio of KD value with respect to NRAS to KD value with respect to KRAS) [1] | HRAS/KRAS (ratio of KD value with respect to HRAS to KD value with respect to KRAS) [2] | also measured |
| --- | --- | --- | --- | --- | --- | --- | --- |
| CCCN1C(=O)[C@@H]2CCN2C(=O)[C@H](C)N(C)C(=O)[C@H]([C@@H](C)CC)NC(=O)[C@H](CC(C)C)N(C)C(=O)C[C@@H](C(=O)N2CCOCC2)N(C)C(=O)[C@H](C2CCCC2)N(C)C(=O)C2(CCCC2)NC(=O)[C@@H]2C[C@@H](OC)CN2C(=O)[C@H](CCc2ccc(C(F)(F)F)c(Cl)c2)NC(=O)CN(C)C(=O)[C@@H]1Cc1ccc(C(F)(F)F)cc1 [PP0283] ([NMeL]I[NMeA][Aze][NPrPhe(4-CF3)][Sar][hPhe(3-Cl-4-CF3)][Hyp](Me)[Ac5c][NMeGly(cPent)][NMeD]-Morpholide; lactam N-11) | C (A compound having a KD ratio of 0.1 or more and less than 3 is denoted as C) | C (A compound having a KD ratio of 0.1 or more and less than 3 is denoted as C) | 0.063 nM |  |  |  |  |
| CCCOC[C@H]1C(=O)N[C@@H]([C@@H](C)CC)C(=O)N(C)CC(=O)N(C)[C@H]2C/C=C\CCN(C2=O)[C@@H](Cc2ccc(C)cc2)C(=O)N(C)CC(=O)N[C@@H](CCc2cc(F)c(C(F)(F)F)c(F)c2)C(=O)N2C[C@H](CCC)C[C@H]2C(=O)NC2(CCCC2)C(=O)N(C)[C@@H](C2CCCC2)C(=O)N(C)[C@H](C(=O)N(C)C)CC(=O)N1C [PP2229] | A (a compound having 10 or more and less than 20 is denoted as A) | A (a compound having 10 or more and less than 20 is denoted as A) |  | 0.38 nM |  |  |  |
| CCCN1C(=O)[C@@H]2CCN2C(=O)CN(C)C(=O)[C@H]([C@@H](C)CC)NC(=O)[C@H](CC(C)C)N(C)C(=O)C[C@@H](C(=O)N2CCOCC2)N(C)C(=O)[C@H](CC(F)(F)F)N(C)C(=O)C2(CCCC2)NC(=O)[C@@H]2CCCN2C(=O)[C@H](CCc2cc(F)c(C(F)(F)F)c(F)c2)NC(=O)CN(C)C(=O)[C@@H]1Cc1ccc(C(F)(F)F)cc1 [PP0803] ([NMeL]I[Sar][Aze][NPrPhe(4-CF3)][Sar][hPhe(3,5-F2-4-CF3)]P[Ac5c][NMeAbu(4,4,4-F3)][NMeD]-Morpholide; lactam N-11) |  |  | 1.7 nM |  | C (A compound having a KD ratio of 0.1 or more and less than 3 is denoted as C) | B (a compound having 3 or more and less than 10 is denoted as B) |  |
| CC[C@H](C)[C@@H]1NC(=O)[C@H](CC(C)C)N(C)C(=O)C[C@@H](C(=O)N2CCOCC2)N(C)C(=O)[C@H](C2CCCC2)N(C)C(=O)C2(CCCC2)NC(=O)[C@@H]2CCCN2C(=O)[C@H](CCc2ccc(C(F)(F)F)c(Cl)c2)NC(=O)CN(C)C(=O)[C@H](Cc2ccc(C(F)(F)F)cc2)N(CCCF)C(=O)CN(C)C(=O)CN(C)C1=O [PP0524] ([NMeL]I[Sar][Sar][X45][Sar][hPhe(3-Cl-4-CF3)]P[Ac5c][NMeGly(cPent)][NMeD]-Morpholide; lactam N-11) |  |  | 0.11 nM |  | B (a compound having 3 or more and less than 10 is denoted as B) | C (A compound having a KD ratio of 0.1 or more and less than 3 is denoted as C) |  |
| CCO[C@@H]1C[C@H]2C(=O)NC3(CCC3)C(=O)N(C)[C@@H](C3CCCC3)C(=O)N(C)[C@H](C(=O)N(C)CCOC)CC(=O)N(C)[C@@H](CC)C(=O)N[C@@H]([C@@H](C)CC)C(=O)N(C)CC(=O)N(C)[C@H]3C/C=C\CCN(C3=O)[C@@H](Cc3ccc(C(F)(F)F)cc3)C(=O)N(C)CC(=O)N[C@@H](CCc3ccc(C(F)(F)F)c(OC)c3)C(=O)N2C1 [PP1321, (2S,8S,12R,14S,20S,23S,27S,30S,36S,38Z)-20-cyclopentyl-12-ethoxy-27-ethyl-N-(2-methoxyethyl)-8-[2-[3-methoxy-4-(trifluoromethyl)phenyl]ethyl]-N,4,19,22,26,32,35-heptamethyl-30-[(1S)-1-methylpropyl]-3,6,9,15,18,21,25,28,31,34,42-undecaoxo-2-[[4-(trifluoromethyl)phenyl]methyl]spiro[1,4,7,10,16,19,22,26,29,32,35-undecazatricyclo[34.5.1.0^10,14]dotetracont-38-ene-17,1′-cyclobutane]-23-carboxamide] |  |  |  |  |  |  | NRAS/KRAS (ratio of KD value for NRAS to KD value for KRAS) ([1]; KD ratio class): A (a compound having 10 or more and less than 20 is denoted as A); HRAS/KRAS (ratio of KD value for HRAS to KD value for KRAS) ([2]; KD ratio class): B (a compound having 3 or more and less than 10 is denoted as B); Kd ([3]; SPR, Single Cycle Kinetics, 1:1 binding model): 0.08 nM |
| CCO[C@@H]1C[C@H]2C(=O)NC3(CCC3)C(=O)N(C)[C@@H](C3CCCC3)C(=O)N(C)[C@H](C(=O)N3CCOCC3)CC(=O)N(C)[C@@H](CC(C)C)C(=O)N[C@@H]([C@@H](C)CC)C(=O)N3CC[C@H]3C(=O)N(C)[C@H]3CC(C)=CCN(C3=O)[C@@H](Cc3ccc(C(F)(F)F)cc3)C(=O)N(C)CC(=O)N[C@@H](CCc3cc(F)c(C(F)(F)F)c(F)c3)C(=O)N2C1 [PP1040] | C (A compound having a KD ratio of 0.1 or more and less than 3 is denoted as C) | C (A compound having a KD ratio of 0.1 or more and less than 3 is denoted as C) |  | 1.2 nM |  |  |  |
| CCCO[C@@H]1C[C@H]2C(=O)NC3(CC(C)(C)C3)C(=O)N(C)[C@@H](C(CC)CC)C(=O)N(C)[C@H](C(=O)N(C)C)CC(=O)N(C)[C@H]3CCCCc4ccc(cc4)C[C@@H](C(=O)N(C)CC(=O)N[C@@H](CCc4ccc(C(F)(F)F)c(OC)c4)C(=O)N2C1)N1CC/C=C\C[C@@H](C1=O)N(C)C(=O)CN(C)C(=O)[C@H]([C@@H](C)CC)NC3=O [PP3038] | A (a compound having 10 or more and less than 20 is denoted as A) | A (a compound having 10 or more and less than 20 is denoted as A) |  | 0.15 nM |  |  |  |
| CCC[C@H]1C(=O)N[C@@H]([C@@H](C)CC)C(=O)N(C)CC(=O)N(C)[C@H]2CCCCN(C2=O)[C@@H](Cc2ccc(C(F)(F)F)cc2)C(=O)N(C)CC(=O)N[C@@H](CCc2cc(F)c(C(F)(F)F)c(F)c2)C(=O)N2C[C@H](OCC)C[C@H]2C(=O)NC2(CCC2)C(=O)N(C)[C@@H](C2CCCC2)C(=O)N(C)[C@H](C(=O)N(C)C)CC(=O)N1C [PP0694] |  |  | 0.025 nM |  | C (A compound having a KD ratio of 0.1 or more and less than 3 is denoted as C) | C (A compound having a KD ratio of 0.1 or more and less than 3 is denoted as C) |  |
| CCO[C@@H]1C[C@H]2C(=O)NC3(CC(C)(C)C3)C(=O)N(C)[C@@H](C(CC)CC)C(=O)N(C)[C@H](C(=O)N(C)C)CC(=O)N(C)[C@@H](CC)C(=O)N[C@@H]([C@@H](C)CC)C(=O)N(C)CC(=O)N(C)[C@H]3C/C=C\CCN(C3=O)[C@@H](Cc3ccc(C)cc3)C(=O)N(C)CC(=O)N[C@@H](CCc3cc(F)c(C(F)(F)F)c(F)c3)C(=O)N2C1 [PP2147] | A (a compound having 10 or more and less than 20 is denoted as A) | B (a compound having 3 or more and less than 10 is denoted as B) |  | 0.33 nM |  |  |  |
